Laboratory results as given in the SangsterLogP compilation.

What was measured:
[1] = method code SF-GLC, from DOI: 10.1897/1552-8618(1989)8[499:dowpcf]2.0.co;2
[2] = not given; remark: listed apart in the source
[3] = not given; remark: listed apart in the source
[4] = not given; remark: listed apart in the source
[5] = method code SF-HPLC, from DOI: 10.1021/js980008v, PMID: 9758683
[6] = not given; remark: listed apart in the source
[7] = not given; remark: listed apart in the source
[8] = not given; remark: listed apart in the source
[9] = method code SF, from ISBN: 9780444415486
[10] = not given; remark: listed apart in the source
[11] = method code SF, from ISBN: 9780815518525; conditions: pH 7.0
[12] = pH 6.0
[13] = method code SF-AS, from DOI: 10.1023/a:1021720128725
[14] = method code SF-AS, from DOI: 10.2307/3574491, PMID: 940937; conditions: pH 7.4
[15] = method code SF, from ISBN: 9780948404450
[16] = method code SF-HPLC, from DOI: 10.13422/j.cnki.syfjx.2013.03.051
[17] = not given; remark: listed apart in the source

`CCCCNCCCC` showed a logP of 2.68.

For `OCCN(CCO)CCO`, the logP was -1.32.

Compound `CCc1ccc2c(c1)C(=O)c1ccccc1C2=O` has a logP [1] of 4.37.

Work on `Cc1ccccc1C(=N)c1ccccc1C` yielded a logP [2] of 3.31.

Compound `CC(=O)Nc1cc(C(C)(C)C)c(O)cc1C` has a logP [2] of 2.18.

For `CSc1nc(NC(C)C)nc(NC(C)C)n1`, the logP [3] was 3.36.

For `O=C(O)c1ccccc1C(=O)Nc1cccc2ccccc12`, the logP [4] was 3.

`O=C1NC(=O)C(c2ccccc2)(c2ccccc2)N1` showed a logP [5] of 2.21.

`O=C1NC(c2ccccc2)(c2ccccc2)C(=O)N1CO` gave a logP [5] of 2.23.

With `Cc1ccccc1/C=C/[N+](=O)[O-]` the logP [6] was 2.63.

In the case of `CCS(=O)CCSP(=O)(OC)OC` (stereo not given), the logP [7] is reported as -0.74.

Work on `O=C(O)c1c(O)cccc1O` yielded a logP [8] of 1.23.

Work on `CN1C(=O)OC(c2ccccc2)C1=O` (stereo not given) yielded a logP [9] of 1.06.

Work on `CCCC(=O)OCN1C(=O)NC(c2ccccc2)(c2ccccc2)C1=O` yielded a logP [5] of 3.9.

In the case of `Oc1ccccc1`, the logP [10] is reported as 1.6.

With `Clc1cc(Cl)c(Cl)cc1Cl` the logP [1] was 4.6.

Compound `CNC(=O)N(C)c1nnc(C(C)(C)C)s1` has a logD [11] of 1.79.

Work on `OCCOCCOCCOCCO` yielded a logP of -1.38.

With `CC(=O)[C@H]1CC[C@H]2[C@@H]3CCC4=CC(=O)CC[C@]4(C)[C@H]3CC[C@]12C` the logD [12] was 3.7.

`Cc1cn2c(=O)c3c(nc2[nH]1)N(COCCO)C(Br)N3` (stereo not given) gave a logP [13] of -0.11.

Compound `CC(=O)OCN1C(=O)NC(c2ccccc2)(c2ccccc2)C1=O` has a logP [5] of 2.8.

Compound `COC(=O)CCn1c(C)cnc1[N+](=O)[O-]` has a logD [14] of -0.25.

Compound `c1ccc(Oc2cccc(-c3ccccc3)c2)cc1` has a logP of 5.55.

`Nc1nc2c(ncn2COCCO)c(=O)[nH]1` gave a logP [13] of -1.44.

`CCS(=O)c1sc(C#N)c(Cl)c1C#N` (stereo not given) gave a logP [15] of 2.54.

`O=[N+]([O-])c1nccn1CC(O)CO` (stereo not given) showed a logD [14] of -0.96.

`O=C1C=CC[C@@H]2[C@H]3CCC[N+]4([O-])CCC[C@@H](CN12)[C@@H]34` (stereo not given in full) gave a logP [16] of -0.44.

Work on `Nc1ccccc1` yielded a logP [17] of 1.08.

Work on `N#Cc1cc(Br)c(O)c(Br)c1` yielded a logP [4] of 2.7.

Work on `CC(C)(C)c1cn2c(=O)c3ncn(COCCO)c3nc2[nH]1` yielded a logP [13] of 0.62.
